Bounds are passed on as bounds.

Data on 17 molecules can be found in patent US10336775B2 (Asceneuron SA, priority 2014, dated 2019).

Chain of His-Tagged hOGA (human O-GlcNAcase) (O60502 whole entry): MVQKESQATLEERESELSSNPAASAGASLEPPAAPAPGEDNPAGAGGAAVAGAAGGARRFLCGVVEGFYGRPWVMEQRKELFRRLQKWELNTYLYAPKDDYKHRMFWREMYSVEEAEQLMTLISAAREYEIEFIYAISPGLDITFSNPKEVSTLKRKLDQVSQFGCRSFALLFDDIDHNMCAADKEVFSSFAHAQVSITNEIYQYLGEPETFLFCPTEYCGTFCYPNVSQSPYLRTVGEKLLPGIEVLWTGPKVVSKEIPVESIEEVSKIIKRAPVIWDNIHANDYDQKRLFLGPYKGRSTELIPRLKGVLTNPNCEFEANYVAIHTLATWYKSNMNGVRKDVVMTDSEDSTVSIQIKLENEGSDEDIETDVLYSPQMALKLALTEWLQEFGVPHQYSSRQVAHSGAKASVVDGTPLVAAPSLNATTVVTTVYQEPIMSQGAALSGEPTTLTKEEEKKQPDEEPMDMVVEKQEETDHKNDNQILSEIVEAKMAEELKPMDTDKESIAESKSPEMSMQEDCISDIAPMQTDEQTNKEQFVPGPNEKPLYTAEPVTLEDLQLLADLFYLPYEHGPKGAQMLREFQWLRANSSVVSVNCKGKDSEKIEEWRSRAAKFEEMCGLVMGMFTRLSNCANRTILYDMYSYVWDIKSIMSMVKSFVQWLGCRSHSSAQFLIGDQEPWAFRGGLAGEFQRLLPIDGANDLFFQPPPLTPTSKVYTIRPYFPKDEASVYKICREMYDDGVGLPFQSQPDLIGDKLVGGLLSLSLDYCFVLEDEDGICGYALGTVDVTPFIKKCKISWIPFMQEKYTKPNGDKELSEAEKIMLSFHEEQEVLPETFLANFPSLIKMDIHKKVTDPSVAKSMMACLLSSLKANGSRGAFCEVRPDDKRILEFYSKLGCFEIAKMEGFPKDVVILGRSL

One assay concerns the target His-Tagged hOGA (human O-GlcNAcase) (Homo sapiens (Human), UniProt O60502). The assay is described as follows: Human O-GlcNAcase enzyme inhibition assay (Example B01). The assay is classed as biochemical. Particulars: OGA enzyme inhibition assay; activity range classes defined in μM; read-out: OGA IC50.
As for `CCc1csc(N2CCN(C(C)c3ccc4c(c3)OCO4)CC2)n1` (racemic) [Example 19, 2-(4-(1-(Benzo[d][1,3]dioxol-5-yl)ethyl)piperazin-1-yl)-4-ethylthiazole], the IC50 – broadly, the concentration that gives 50% inhibition – was in the range of 0.2 to 1 µM. On the same count and under the same terms, with `CC(c1ccc2c(c1)OCO2)N1CCN(c2ccc(Cl)cn2)CC1` (racemic) [Example 20] the figure was 0.2 to 1 µM; with `Cc1cccc(N2CCN(C(C)c3ccc4c(c3)OCO4)CC2)n1` (racemic) [Example 21, 1-(1-(Benzo[d][1,3]dioxol-5-yl)ethyl)-4-(6-methylpyridin-2-yl)piperazine], 0.2 to 1 µM. The same measure, in the same setting: with `CC(c1ccc2c(c1)OCO2)N1CCN(c2nccc(N)n2)CC1` (racemic) [Example 22, 2-(4-(1-(Benzo[d][1,3]dioxol-5-yl)ethyl)piperazin-1-yl)pyrimidin-4-amine] the figure was 0.05 to 0.2 µM.

For `CC(=O)Nc1ccnc(N2CCN(C(C)c3ccc4c(c3)OCO4)CC2)n1` (racemic) [Example 23, N-(2-(4-(1-(Benzo[d][1,3]dioxol-5-yl)ethyl)piperazin-1-yl)pyrimidin-4-yl)acetamide], the IC50 was 0.05 to 0.2 µM. On to `CC(c1ccc2c(c1)OCO2)N1CCN(c2cc(Cl)ncn2)CC1` (racemic) [Example 24, 4-(4-(1-(Benzo[d][1,3]dioxol-5-yl)ethyl)piperazin-1-yl)-6-chloropyrimidine], for which the IC50 lay within 0.05 to 0.2 µM. On the same count and under the same terms, next, `CC(c1ccc2c(c1)OCO2)N1CCN(c2cnc(Cl)cn2)CC1` (racemic) [Example 25]: 0.05 to 0.2 µM.

Turning to `CCOC(=O)c1cnc(N2CCN(C(C)c3ccc4c(c3)OCO4)CC2)s1` (racemic) [Example 27, Ethyl 2-(4-(1-(benzo[d][1,3]dioxol-5-yl)ethyl)piperazin-1-yl)thiazole-5-carboxylate], the IC50 lay within 0.2 to 1 µM. Still for that read-out and setting: with `CC(c1ccc2c(c1)OCO2)N1CCN(c2ncc(CO)s2)CC1` (racemic) [Example 28, (2-(4-(1-(Benzo[d][1,3]dioxol-5-yl)ethyl)piperazin-1-yl)thiazol-5-yl)methanol] the figure was 0.05 to 0.2 µM; with `CC(c1ccc2c(c1)OCO2)N1CCN(c2nc(CO)cs2)CC1` (racemic) [Example 29, (2-(4-(1-(Benzo[d][1,3]dioxol-5-yl)ethyl)piperazin-1-yl)thiazol-4-yl)methanol], 0.05 to 0.2 µM; with `CNC(=O)c1csc(N2CCN(C(C)c3ccc4c(c3)OCO4)CC2)n1` (racemic) [Example 30, 2-(4-(1-(Benzo[d][1,3]dioxol-5-yl)ethyl)piperazin-1-yl)-N-methylthiazole-4-carboxamide], 0.05 to 0.2 µM. As to `CC(C)NC(=O)c1csc(N2CCN(C(C)c3ccc4c(c3)OCO4)CC2)n1` (racemic) [Example 32, 2-(4-(1-(Benzo[d][1,3]dioxol-5-yl)ethyl)piperazin-1-yl)-N-isopropylthiazole-4-carboxamide], the IC50 lay within 0.2 to 1 µM. The same measure, in the same setting: with `CC(c1ccc2c(c1)OCO2)N1CCN(c2nc(C(=O)NC3CCCCC3)cs2)CC1` (racemic) [Example 33, 2-(4-(1-(Benzo[d][1,3]dioxol-5-yl)ethyl)piperazin-1-yl)-N-cyclohexylthiazole-4-carboxamide] the figure was 0.2 to 1 µM; with `CC(c1ccc2c(c1)OCO2)N1CCN(c2nc(C(N)=O)cs2)CC1` (racemic) [Example 35, 2-(4-(1-(Benzo[d][1,3]dioxol-5-yl)ethyl)piperazin-1-yl)thiazole-4-carboxamide], 0.05 to 0.2 µM. Consider `Cc1cnc(N2CCN(C(C)c3ccc4c(c3)OCO4)CC2)s1` (racemic) [Example 36], for which the IC50 was 0.05 to 0.2 µM. As to `Cc1ncc(N2CCN(C(C)c3ccc4c(c3)OCO4)CC2)s1` (racemic) [Example 37, 5-(4-(1-(Benzo[d][1,3]dioxol-5-yl)ethyl)piperazin-1-yl)-2-methylthiazole], the IC50 was less than 0.05 µM. Turning to `CC(c1ccc2c(c1)OCO2)N1CCN(c2ncc(Cl)cn2)CC1` (racemic) [Example 38], the IC50 was 0.05 to 0.2 µM.

Staying with this assay, now noted: measured according to Example B01.
Regarding `Cc1ncc(N2CCN(C(C)c3ccc4c(c3)OCO4)CC2)s1` (racemic) [Example 37, 5-(4-(1-(Benzo[d][1,3]dioxol-5-yl)ethyl)piperazin-1-yl)-2-methylthiazole], the “OGA inhibitor activity (in words)” value was “very potent OGA inhibitors”.
